The structures appear in SMILES notation. Where only a bound is given, the exact number is not on record here.

What all share (format): cell-based
One assay has as its system MV-4-11. Nature of the assay: Proliferation inhibition (CellTiter-Glo) in MV-4-11 cells. To be noted: Homo sapiens, MV4-11, 96 h, MV-4-11 AML cells, homozygous FLT3-ITD, IC50 (4 days). In a few lines: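 MV-4-11 human AML cells (homozygous FLT3-ITD) grown in RPMI-1640 with 10% heat-inactivated FBS and 1% Pen-Strep were seeded at about 10,000 cells per 200 μL in 96 well plates. Two hours later, compounds were dispensed at eight concentrations in duplicate. Viability was measured by CellTiter-Glo luminescence, and IC50 values came from four-parameter logistic non-linear regression against untreated cells (0.2% DMSO).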
On the technique in general: In ATP-based viability assays light output follows the ATP content of the culture.

The test system of the next assay is K-562. Description: Proliferation inhibition (CellTiter-Glo) in K-562 cells. To be noted: Homo sapiens, K562, 96 h, K-562 CML cells, no FLT3 mutations, IC50 (4 days). In a few lines:
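The CML line […] (ATCC: CRL-3343) was cultured in RPMI-1640 with 10% heat-inactivated FBS and 1% Pen-Strep at 37° C. Cells were seeded at about 10,000 per 200 μL in 96-well plates, and test compound was dispensed 2 hours later at eight concentrations in duplicate. Viability was measured as ATP luminescence with CellTiter-Glo. Untreated cells (0.2% DMSO) defined 100% proliferation, and IC50 values came from four-parameter logistic fits.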

A further assay has as its system MOLM-13. Nature of the assay: Proliferation inhibition (CellTiter-Glo) in MOLM-13 cells. To be noted: Homo sapiens, 96 h, MOLM-13 AML cells, heterozygous FLT3-ITD, IC50 (4 days). In a few lines:
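MOLM-13 human AML cells, heterozygous for FLT3-ITD, were grown in RPMI-1640 with 10% heat-inactivated FBS and 1% Pen-Strep. About 10,000 cells in 200 μL were seeded per well of 96-well plates. After 2 hours, compounds from DMSO stocks were dispensed at eight concentrations in duplicate, with 0.2% DMSO as the untreated control. Viability was read as CellTiter-Glo ATP luminescence, and IC50 was obtained from a four-parameter logistic fit.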

What is called IC50 is the concentration that gives 50% inhibition. As to `CCc1nc(C(N)=O)c(Nc2cccc(OCCCNC(=O)[C@H](C)N(C)C(=O)/C=C/CN(C)C)c2)nc1NC(CC)CC` [Compound 122, (S,E)-3-((3-(3-(2-(4-(dimethylamino)-N-methylbut-2-enamido)propanamido)propoxy)phenyl)amino)-6-ethyl-5-(pentan-3-ylamino)pyrazine-2-carboxamide], the IC50 was less than 1 nM in the assay on MV-4-11, more than 500 nM in the assay with K-562 and less than 1 nM in the assay on MOLM-13.
Take `CCc1nc(C(N)=O)c(Nc2cccc(OCCCNC(=O)[C@H](C)N(C)C(=O)/C=C/CN(C)C)c2)nc1NC1CCC(F)(F)CC1` [Compound 123, (S,E)-5-((4,4-difluorocyclohexyl)amino)-3-((3-(3-(2-(4-(dimethylamino)-N-methylbut-2-enamido)propanamido)propoxy)phenyl)amino)-6-ethylpyrazine-2-carboxamide]: the values for the IC50 in the assay on MV-4-11, in the assay on K-562 and with MOLM-13 were less than 1 nM, more than 500 nM and 1 to 10 nM, respectively.
In the case of `CCc1nc(C(N)=O)c(Nc2cccc(OCCCNC(=O)[C@H](C)N(C)C(=O)/C=C/CN(C)C)c2)nc1NC(C)C` [Compound 124, (S,E)-3-((3-(3-(2-(4-(dimethylamino)-N-methylbut-2-enamido)propanamido)propoxy)phenyl)amino)-6-ethyl-5-(isopropylamino)pyrazine-2-carboxamide], the IC50 with MV-4-11 is 1 to 10 nM; with K-562 it was more than 500 nM; with MOLM-13, less than 1 nM.
Regarding `CCc1nc(C(N)=O)c(Nc2cccc(OCCCNC(=O)[C@H](C)N(C)C(=O)/C=C/CN(C)C)c2)nc1C1CC1` [Compound 125, (S,E)-5-cyclopropyl-3-((3-(3-(2-(4-(dimethylamino)-N-methylbut-2-enamido)propanamido)propoxy)phenyl)amino)-6-ethylpyrazine-2-carboxamide], the IC50 in the assay on MV-4-11 is 1 to 10 nM; in the assay with K-562, more than 500 nM; in the assay with MOLM-13, 10 to 100 nM.
For `CCc1nc(C(N)=O)c(Nc2cccc(OCCCNC(=O)[C@H](C)N(C)C(=O)/C=C/CN(C)C)c2)nc1C` [Compound 126, (S,E)-3-((3-(3-(2-(4-(dimethylamino)-N-methylbut-2-enamido)propanamido)propoxy)phenyl)amino)-6-ethyl-5-methylpyrazine-2-carboxamide], in that order: 1 to 10 nM, more than 500 nM and 10 to 100 nM.
On the same counts, the results for `CC#CC(=O)N(C)[C@@H](C)C(=O)NCCCOc1cc(F)cc(Nc2nc(NC3CCOCC3)c(CC)nc2C(N)=O)c1` [Compound 128, (S)-6-ethyl-3-((3-fluoro-5-(3-(2-(N-methylbut-2-ynamido)propanamido)propoxy)phenyl)amino)-5-((tetrahydro-2H-pyran-4-yl)amino)pyrazine-2-carboxamide] are 1 to 10 nM, more than 500 nM and 1 to 10 nM.
For `CCc1nc(C(N)=O)c(Nc2cc(F)cc(OCCCNC(=O)[C@H](C)N(C)C(=O)/C=C/CN(C)C)c2)nc1NC1CCOCC1` [Compound 129, (S,E)-3-((3-(3-(2-(4-(Dimethylamino)-N-methylbut-2-enamido)propanamido)propoxy)-5-fluorophenyl)amino)-6-ethyl-5-((tetrahydro-2H-pyran-4-yl)amino)pyrazine-2-carboxamide], in that order: less than 1 nM, more than 500 nM and less than 1 nM.
Consider `C[C@@H](C(=O)NCCCOc1cccc(Nc2nc(NC3CCOCC3)cnc2C(N)=O)c1)N(C)C(=O)/C=C/CN(C)C` [Compound 130, (S,E)-3-((3-(3-(2-(4-(dimethylamino)-N-methylbut-2-enamido)propanamido)propoxy)phenyl)amino)-5-((tetrahydro-2H-pyran-4-yl)amino)pyrazine-2-carboxamide], for which the results for the IC50 in the assay on MV-4-11, in the assay with K-562 and with MOLM-13 were 1 to 10 nM, more than 500 nM and 10 to 100 nM, respectively.
For `CCc1nc(C(N)=O)c(Nc2cc(CCNC(=O)[C@H](C(C)C)N(C)C(=O)/C=C/CN(C)C)cc(OC)c2)nc1NC1CCOCC1` [Compound 131, (S,E)-3-((3-(2-(2-(4-(dimethylamino)-N-methylbut-2-enamido)-3-methylbutanamido)ethyl)-5-methoxyphenyl)amino)-6-ethyl-5-((tetrahydro-2H-pyran-4-yl)amino)pyrazine-2-carboxamide], in that order: 1 to 10 nM, more than 500 nM and 10 to 100 nM.
For `Cc1nc(C(N)=O)c(Nc2cccc(OCCCNC(=O)[C@H](C)N(C)C(=O)/C=C/CN(C)C)c2)nc1NC1CCOCC1` [Compound 132, (S,E)-3-((3-(3-(2-(4-(dimethylamino)-N-methylbut-2-enamido)propanamido)propoxy)phenyl)amino)-6-methyl-5-((tetrahydro-2H-pyran-4-yl)amino)pyrazine-2-carboxamide], in that order: less than 1 nM, more than 500 nM and 1 to 10 nM.
Consider `C[C@@H](C(=O)NCCCOc1cccc(Nc2nc(NC3CCOCC3)c(C3CC3)nc2C(N)=O)c1)N(C)C(=O)/C=C/CN(C)C` [Compound 133, (S,E)-6-cyclopropyl-3-((3-(3-(2-(4-(dimethylamino)-N-methylbut-2-enamido)propanamido)propoxy)phenyl)amino)-5-((tetrahydro-2H-pyran-4-yl)amino)pyrazine-2-carboxamide], for which the IC50 with MV-4-11 was less than 1 nM; in the assay with K-562, more than 500 nM; in the assay on MOLM-13, 1 to 10 nM.
For `CCc1nc(C(N)=O)c(Nc2cccc(OCCCNC(=O)[C@H](C)N(C)C(=O)/C=C/CN3CCC3)c2)nc1NC1CCOCC1` [Compound 134, (S,E)-3-((3-(3-(2-(4-(azetidin-1-yl)-N-methylbut-2-enamido)propanamido)propoxy)phenyl)amino)-6-ethyl-5-((tetrahydro-2H-pyran-4-yl)amino)pyrazine-2-carboxamide], in that order: less than 1 nM, more than 500 nM and 1 to 10 nM.
Consider `CCc1nc(C(N)=O)c(Nc2cccc(CCNC(=O)[C@H](C)N(C)C(=O)/C=C/CN(C)C)c2)nc1NC1CCOCC1` [Compound 135, (S,E)-3-((3-(2-(2-(4-(dimethylamino)-N-methylbut-2-enamido)propanamido)ethyl)phenyl)amino)-6-ethyl-5-((tetrahydro-2H-pyran-4-yl)amino)pyrazine-2-carboxamide], for which the IC50 was less than 1 nM in the assay with MV-4-11, more than 500 nM in the assay with K-562 and less than 1 nM in the assay with MOLM-13.
For the compound `CCc1nc(C(N)=O)c(Nc2cc(CCNC(=O)[C@H](C)N(C)C(=O)C#CCN(C)C)cc(OC)c2)nc1NC1CCOCC1` [Compound 136, (S)-3-((3-(2-(2-(4-(dimethylamino)-N-methylbut-2-ynamido)propanamido)ethyl)-5-methoxyphenyl)amino)-6-ethyl-5-((tetrahydro-2H-pyran-4-yl)amino)pyrazine-2-carboxamide], the figures for the IC50 in the assay on MV-4-11, in the assay on K-562 and in the assay with MOLM-13 were less than 1 nM, more than 500 nM and 1 to 10 nM, respectively.
For `CCc1nc(C(N)=O)c(Nc2cccc(OCCCNC(=O)[C@H](C)N(C)C(=O)/C=C/CN3CC(F)C3)c2)nc1NC1CCOCC1` [Compound 139, (S,E)-6-Ethyl-3-((3-(3-(2-(4-(3-fluoroazetidin-1-yl)-N-methylbut-2-enamido)propanamido)propoxy)phenyl)amino)-5-((tetrahydro-2H-pyran-4-yl)amino)pyrazine-2-carboxamide], in that order: less than 1 nM, more than 500 nM and 1 to 10 nM.
For `CCc1nc(C(N)=O)c(Nc2cccc(OCCCNC(=O)[C@H](C)N(C)C/C=C/C(=O)N(C)C)c2)nc1NC1CCOCC1` [Compound 140, (S,E)-3-((3-(3-(2-((4-(dimethylamino)-4-oxobut-2-en-1-yl)(methyl)amino)propanamido)propoxy)phenyl)amino)-6-ethyl-5-((tetrahydro-2H-pyran-4-yl)amino)pyrazine-2-carboxamide], in that order: 10 to 100 nM, more than 500 nM and 10 to 100 nM.
For `CCc1nc(C(N)=O)c(Nc2cccc(OCCCNC(=O)[C@H](C)N(C)C(=O)/C=C/CN(C)C)c2)nc1N(CC)CC` [Compound 141, (S,E)-5-(diethylamino)-3-((3-(3-(2-(4-(dimethylamino)-N-methylbut-2-enamido)propanamido)propoxy)phenyl)amino)-6-ethylpyrazine-2-carboxamide], in that order: less than 1 nM, more than 500 nM and less than 1 nM.
Consider `CCc1nc(C(N)=O)c(Nc2cccc(OCCCNC(=O)[C@H](C)N(C)C(=O)/C=C/CN(C)C)c2)nc1N1CCCC1` [Compound 142, (S,E)-3-((3-(3-(2-(4-(dimethylamino)-N-methylbut-2-enamido)propanamido)propoxy)phenyl)amino)-6-ethyl-5-(pyrrolidin-1-yl)pyrazine-2-carboxamide], for which the IC50 with MV-4-11 is 1 to 10 nM; in the assay on K-562 it was more than 500 nM; with MOLM-13, 1 to 10 nM.

Values taken from US20250136558A1, “PYRAZINE COMPOUNDS AS IRREVERSIBLE INHIBITORS OF FLT3” (BIOMEA FUSION, INC., priority 2021, published 2025).
